The text below walks through data of ChEMBL document CHEMBL1137905, “Synthesis of anilino-monoindolylmaleimides as potent and selective PKCbeta inhibitors” (Bioorg Med Chem Lett, 2004).

SMILES strings stand for the structures.

For experiment [1], the target named is Protein kinase C alpha type (Homo sapiens, UniProt P17252). Kind of experiment: Inhibitory concentration against recombinant human Protein kinase C alpha.
The target of experiment [2] is T1, Protein kinase C epsilon type (Homo sapiens, UniProt Q02156).
T1 sequence (Q02156 whole entry): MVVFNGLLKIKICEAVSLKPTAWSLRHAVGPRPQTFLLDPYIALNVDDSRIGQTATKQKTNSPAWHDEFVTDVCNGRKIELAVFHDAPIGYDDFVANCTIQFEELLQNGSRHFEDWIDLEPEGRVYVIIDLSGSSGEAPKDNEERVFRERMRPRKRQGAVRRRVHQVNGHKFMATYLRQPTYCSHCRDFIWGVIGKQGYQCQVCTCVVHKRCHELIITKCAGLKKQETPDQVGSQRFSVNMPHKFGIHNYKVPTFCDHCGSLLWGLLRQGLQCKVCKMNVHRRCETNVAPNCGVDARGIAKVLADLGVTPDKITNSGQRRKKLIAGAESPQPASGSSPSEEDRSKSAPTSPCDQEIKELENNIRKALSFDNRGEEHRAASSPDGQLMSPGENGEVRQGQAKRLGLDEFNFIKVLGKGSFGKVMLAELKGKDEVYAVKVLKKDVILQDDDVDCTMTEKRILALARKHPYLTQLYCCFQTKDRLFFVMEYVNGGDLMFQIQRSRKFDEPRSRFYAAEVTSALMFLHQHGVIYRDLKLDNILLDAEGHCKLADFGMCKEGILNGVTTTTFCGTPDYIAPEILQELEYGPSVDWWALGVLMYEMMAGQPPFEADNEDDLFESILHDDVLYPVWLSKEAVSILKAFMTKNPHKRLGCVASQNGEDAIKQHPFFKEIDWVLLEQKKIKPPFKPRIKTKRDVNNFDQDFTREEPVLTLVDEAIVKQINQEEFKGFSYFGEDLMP
Kind of experiment: Inhibitory concentration against recombinant human Protein kinase C epsilon.

For experiment [3], the target named is T2, Protein kinase C beta type (Homo sapiens, UniProt P05771). Put plainly: Inhibitory concentration against recombinant human Protein kinase C beta 1.
Experiment [4] addresses T2, Protein kinase C beta type. Put plainly: Inhibitory concentration against recombinant human Protein kinase C beta 2.

T2 sequence (P05771 whole entry): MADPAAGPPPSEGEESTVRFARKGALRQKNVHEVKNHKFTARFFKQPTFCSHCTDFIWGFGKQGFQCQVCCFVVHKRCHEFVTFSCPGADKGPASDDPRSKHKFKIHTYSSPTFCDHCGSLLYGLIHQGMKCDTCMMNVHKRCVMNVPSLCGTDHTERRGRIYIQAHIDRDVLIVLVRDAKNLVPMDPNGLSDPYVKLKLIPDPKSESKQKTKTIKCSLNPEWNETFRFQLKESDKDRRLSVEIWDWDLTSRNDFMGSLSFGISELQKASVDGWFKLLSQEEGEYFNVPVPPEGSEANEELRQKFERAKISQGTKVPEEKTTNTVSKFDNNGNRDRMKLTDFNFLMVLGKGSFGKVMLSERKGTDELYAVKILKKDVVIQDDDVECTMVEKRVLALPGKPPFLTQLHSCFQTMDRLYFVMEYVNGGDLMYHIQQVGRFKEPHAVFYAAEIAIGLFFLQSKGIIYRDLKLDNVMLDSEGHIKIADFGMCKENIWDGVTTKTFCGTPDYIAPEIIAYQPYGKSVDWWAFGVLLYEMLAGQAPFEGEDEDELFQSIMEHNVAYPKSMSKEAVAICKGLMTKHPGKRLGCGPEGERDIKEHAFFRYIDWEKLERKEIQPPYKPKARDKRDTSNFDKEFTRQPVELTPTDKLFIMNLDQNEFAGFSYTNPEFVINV

As to `O=C1NC(=O)C(c2c[nH]c3ccccc23)=C1c1c[nH]c2ccccc12` [RO-316233], the half-inhibitory concentration (IC50) (in general, the concentration that gives 50% inhibition) in experiment [1] worked out at 1600 nM; in experiment [2] it was 7520 nM; in experiment [3] it was 304 nM; in experiment [4], 212 nM.
On to `CN(C)CCCn1cc(C2=C(Nc3ccccc3)C(=O)NC2=O)c2ccccc21`, for which the IC50 in experiment [2] was 3460 nM.
Same read-out and setting: the figure for `CN(C)CCCn1cc(C2=C(Nc3cccc(Cl)c3)C(=O)NC2=O)c2ccccc21` is 2610 nM.
As for `Cc1ccc(NC2=C(c3c[nH]c4ccccc34)C(=O)NC2=O)cc1`, in experiment [4], the concentration for half-maximal inhibition (IC50) was determined as 480 nM.
On to `CC(C)c1cccc(NC2=C(c3c[nH]c4ccccc34)C(=O)NC2=O)c1`, for which the IC50 in experiment [4] was 2860 nM.
Same read-out and setting: the value for `COc1cccc(NC2=C(c3c[nH]c4ccccc34)C(=O)NC2=O)c1` was 747 nM.
As to `Cc1cccc(NC2=C(c3cn(CCCN(C)C)c4ccccc34)C(=O)NC2=O)c1`, in experiment [2], the IC50 stood at 3460 nM.
With `CN(C)CCCCCn1cc(C2=C(Nc3ccccc3)C(=O)NC2=O)c2ccccc21`, the IC50 stood at 2230 nM in experiment [1], 3900 nM in experiment [2] and 41 nM in experiment [4].
As for `O=C1NC(=O)C(c2cn(CCCN3CCCC3)c3ccccc23)=C1Nc1ccccc1`, the IC50 in experiment [2] was above 10000 nM.
For the molecule `O=C1NC(=O)C(c2c[nH]c3ccccc23)=C1Nc1ccccc1`, the IC50 is above 10000 nM in experiment [2] and 395 nM in experiment [3].
On to `O=C1NC(=O)C(c2cn(CCCN3CCCCC3)c3ccccc23)=C1Nc1ccccc1`, for which, in experiment [2], the half-inhibitory concentration (IC50) came out at 3420 nM.
Regarding `O=C1NC(=O)C(c2c[nH]c3ccccc23)=C1Nc1cccc(C(F)(F)F)c1`, in experiment [4], the IC50 was 1450 nM.
Turning to `CN(C1=C(c2c[nH]c3ccccc23)C(=O)NC1=O)c1ccccc1`, the IC50 in experiment [4] was determined as 939 nM.
Turning to `CN(C)CCCCn1cc(C2=C(Nc3ccccc3)C(=O)NC2=O)c2ccccc21`, the IC50 in experiment [2] was determined as 5870 nM.
`O=C1NC(=O)C(c2cn(CCCn3ccnc3)c3ccccc23)=C1Nc1ccccc1`: the IC50 in experiment [2] is 2810 nM; in experiment [3], 21 nM.
Turning to `O=C1NC(=O)C(c2c[nH]c3ccccc23)=C1NC1CCCCC1`, the IC50 in experiment [4] turned out to be 2450 nM.
For the molecule `CN1CCN(CCCn2cc(C3=C(Nc4ccccc4)C(=O)NC3=O)c3ccccc32)CC1`, the IC50 in experiment [2] was above 10000 nM.
Regarding `O=C1NC(=O)C(c2cn(CCCO)c3ccccc23)=C1Nc1ccccc1`, the IC50 in experiment [2] stood at 6320 nM.
The same measure, in the same setting: the value for `N=C(N)SCCCn1cc(C2=C(Nc3ccccc3)C(=O)NC2=O)c2ccccc21` was 58 nM; that for `CN(C)CCn1cc(C2=C(Nc3ccccc3)C(=O)NC2=O)c2ccccc21` was above 10000 nM.
As for `O=C1NC(=O)C(c2c[nH]c3ccccc23)=C1NCc1ccccc1`, in experiment [4], the IC50 was above 10000 nM.
Still for that read-out and setting: the value for `Cc1ccccc1NC1=C(c2c[nH]c3ccccc23)C(=O)NC1=O` was 2150 nM.
